Broadly, the pIC50 is the negative decadic logarithm of the IC50, by convention in mol/L.

Each structure is given as a SMILES string. pIC50: −log10 of the molar value.

Sequence of human recombinant H-PGDS (O60760 whole entry): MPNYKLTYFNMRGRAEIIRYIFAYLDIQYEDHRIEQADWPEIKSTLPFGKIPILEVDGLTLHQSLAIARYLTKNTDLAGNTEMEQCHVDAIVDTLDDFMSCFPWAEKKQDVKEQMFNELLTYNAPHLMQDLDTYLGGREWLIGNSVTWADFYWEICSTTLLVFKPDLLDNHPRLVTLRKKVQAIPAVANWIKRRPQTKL

The experiment has as its target human recombinant H-PGDS (Homo sapiens, UniProt O60760). Nature of the experiment: Fluorescence intensity h-PGDS TBA enzyme assay. The experiment is classed as biochemical. Particulars: Examples up to 622 (and 3a, 3b).
Consider `CC(C)N1CCC(NC(=O)c2ccc(-c3cccc(F)c3)nc2)CC1` [Example 30, 6-(3-Fluorophenyl)-N-(1-isopropylpiperidin-4-yl)nicotinamide], for which the pIC50 is 8.42.
The result for `CCCC(=O)N1CCC(NC(=O)c2ccc(-c3cccc(F)c3)nc2)CC1` [Example 31, N-(1-Butyrylpiperidin-4-yl)-6-(3-fluorophenyl)nicotinamide] reads 7.70; that for `CCOC(=O)N1CCC(NC(=O)c2ccc(-c3cccc(F)c3)nc2)CC1` [Example 32, Ethyl 4-({[6-(3-fluorophenyl)pyridin-3-yl]carbonyl}amino)piperidine-1-carboxylate], 9.41.
With `CCOC(=O)N1CCC(NC(=O)c2ccc(-c3cc(F)cc(F)c3)nc2)CC1` [Example 33, Ethyl 4-({[6-(3,5-difluorophenyl)pyridin-3-yl]carbonyl}amino)piperidine-1-carboxylate], the pIC50 is 8.62.
The result for `O=C(NC1CCN(CC(F)(F)F)CC1)c1ccc(-c2cc(F)cc(F)c2)nc1` [Example 34, 6-(3,5-Difluorophenyl)-N-[1-(2,2,2-trifluoroethyl)piperidin-4-yl]nicotinamide] reads 8.73; that for `COc1cnc(-c2ccccn2)nc1N1CCC(NC(=O)c2ccc(-c3cccc(F)c3)nc2)CC1` [Example 35, 6-(3-Fluorophenyl)-N-(1-(5-methoxy-2-(pyridin-2-yl)pyrimidin-4-yl)piperidin-4-yl)nicotinamide], 8.53; that for `O=C(NC1CCNCC1)c1ccc(-c2cccc(F)c2)nc1` [Example 36, 6-(3-Fluorophenyl)-N-(piperidin-4-yl)nicotinamide], 8.15.
Take `O=C(NC1CCN(c2cc(Nc3cc[nH]n3)ncn2)CC1)c1ccc(-c2cccc(F)c2)nc1` [Example 37, N-(1-(6-(1H-Pyrazol-3-ylamino)pyrimidin-4-yl)piperidin-4-yl)-6-(3-fluorophenyl)nicotinamide]: the pIC50 is 9.32.
In the case of `O=C(NC1CCN(c2ncnc3ccc(Cl)cc23)CC1)c1ccc(-c2cccc(F)c2)nc1` [Example 38, N-(1-(6-Chloroquinazolin-4-yl)piperidin-4-yl)-6-(3-fluorophenyl)nicotinamide], the pIC50 was 8.98.
Take `O=C(NC1CCN(c2nnnn2-c2ccccc2)CC1)c1ccc(-c2cccc(F)c2)nc1` [Example 39, 6-(3-Fluorophenyl)-N-(1-(1-phenyl-1H-tetrazol-5-yl)piperidin-4-yl)nicotinamide]: the pIC50 is 9.03.
The value for `Cc1ccc(C#N)c(N2CCC(NC(=O)c3ccc(-c4cccc(F)c4)nc3)CC2)n1` [Example 41, N-[1-(3-Cyano-6-methylpyridin-2-yl)piperidin-4-yl]-6-(3-fluorophenyl)nicotinamide] was 9.05; that for `O=C(NC1CCN(c2nccnc2-c2ccccc2)CC1)c1ccc(-c2cccc(F)c2)nc1` [Example 42, 6-(3-Fluorophenyl)-N-[1-(3-phenylpyrazin-2-yl)piperidin-4-yl]nicotinamide] was 8.07; that for `O=C(NC1CCN(c2nc3ccccc3nc2NCCO)CC1)c1ccc(-c2cccc(F)c2)nc1` [Example 43, 6-(3-Fluorophenyl)-N-(1-{3-[(2-hydroxyethyl)amino]quinoxalin-2-yl}piperidin-4-yl)nicotinamide] was 8.66.
As to `COc1ccc(-c2cnc(C)nc2N2CCC(NC(=O)c3ccc(-c4cccc(F)c4)nc3)CC2)cc1OC` [Example 44, N-{1-[5-(3,4-Dimethoxyphenyl)-2-methylpyrimidin-4-yl]piperidin-4-yl}-6-(3-fluorophenyl)nicotinamide], the pIC50 is 8.87.
For `Cc1cc(N2CCC(NC(=O)c3ccc(-c4cccc(F)c4)nc3)CC2)nc(N)n1` [Example 45, N-[1-(2-Amino-6-methylpyrimidin-4-yl)piperidin-4-yl]-6-(3-fluorophenyl)nicotinamide], the pIC50 was 9.11.
The value for `Cc1nc(C(F)(F)F)nc(N2CCC(NC(=O)c3ccc(-c4cccc(F)c4)nc3)CC2)c1C` [Example 46, N-{1-[5,6-Dimethyl-2-(trifluoromethyl)pyrimidin-4-yl]piperidin-4-yl}-6-(3-fluorophenyl)nicotinamide] was 8.76.
The value for `Cc1cc(C2CCCN2c2ccnc(N3CCC(NC(=O)c4ccc(-c5cccc(F)c5)nc4)CC3)n2)no1` (centres unmarked) [Example 47, 6-(3-Fluorophenyl)-N-(1-{4-[2-(5-methylisoxazol-3-yl)pyrrolidin-1-yl]pyrimidin-2-yl}piperidin-4-yl)nicotinamide] was 8.53.
The value for `Cc1nc(-c2ccccn2)nc(N2CCC(NC(=O)c3ccc(-c4cccc(F)c4)nc3)CC2)c1Cl` [Example 48, N-[1-(5-Chloro-6-methyl-2-pyridin-2-ylpyrimidin-4-yl)piperidin-4-yl]-6-(3-fluorophenyl)nicotinamide] was 8.54; that for `COc1cc(N2CCC(NC(=O)c3ccc(-c4cccc(F)c4)nc3)CC2)ncn1` [Example 49, 6-(3-Fluorophenyl)-N-[1-(6-methoxypyrimidin-4-yl)piperidin-4-yl]nicotinamide] was 9.21.
As for `O=C(NC1CCN(c2ccc(C(=O)N3CCOCC3)cn2)CC1)c1ccc(-c2cccc(F)c2)nc1` [Example 50, 6-(3-Fluorophenyl)-N-{1-[5-(morpholin-4-ylcarbonyl)pyridin-2-yl]piperidin-4-yl}nicotinamide], the pIC50 is 9.17.
The result for `Cn1nnnc1N1CCC(NC(=O)c2ccc(-c3cccc(F)c3)nc2)CC1` [Example 51, 6-(3-Fluoro-phenyl)-N-[1-(1-methyl-1H-tetrazol-5-yl)-piperidin-4-yl]-nicotinamide] reads 9.58.
As for `COc1ccc2c(N3CCC(NC(=O)c4ccc(-c5cccc(F)c5)nc4)CC3)ncnc2c1` [Example 52, 6-(3-Fluorophenyl)-N-[1-(7-methoxyquinazolin-4-yl)piperidin-4-yl]nicotinamide], the pIC50 was 9.48.
For the compound `O=C(NC1CCN(c2cc(OCc3ccccn3)ncn2)CC1)c1ccc(-c2cccc(F)c2)nc1` [Example 53, 6-(3-Fluorophenyl)-N-{1-[6-(pyridin-2-ylmethoxy)pyrimidin-4-yl]piperidin-4-yl}nicotinamide], the pIC50 was 8.99.
Turning to `Cn1ccnc1COc1cc(N2CCC(NC(=O)c3ccc(-c4cccc(F)c4)nc3)CC2)ncn1` [Example 54, 6-(3-Fluorophenyl)-N-(1-{6-[(1-methyl-1H-imidazol-2-yl)methoxy]pyrimidin-4-yl}piperidin-4-yl)nicotinamide], the pIC50 was 8.88.
Turning to `COc1ccc(-c2cc(N3CCC(NC(=O)c4ccc(-c5cccc(F)c5)nc4)CC3)ncn2)cc1OC` [Example 55, N-{1-[6-(3,4-Dimethoxyphenyl)pyrimidin-4-yl]piperidin-4-yl}-6-(3-fluorophenyl)nicotinamide], the pIC50 is 8.78.
The value for `Cn1nccc1-c1nc(N2CCC(NC(=O)c3ccc(-c4cccc(F)c4)nc3)CC2)nc2ccccc12` [Example 56, 6-(3-Fluorophenyl)-N-{1-[4-(1-methyl-1H-pyrazol-5-yl)quinazolin-2-yl]piperidin-4-yl}nicotinamide] was 7.89; that for `CCn1cnc2c(N3CCC(NC(=O)c4ccc(-c5cccc(F)c5)nc4)CC3)ncnc21` [Example 57, N-[1-(9-Ethyl-9H-purin-6-yl)piperidin-4-yl]-6-(3-fluorophenyl)nicotinamide] was 9.55; that for `O=C(NC1CCN(c2ccnc(N3CCc4ccccc4C3)n2)CC1)c1ccc(-c2cccc(F)c2)nc1` [Example 58, N-{1-[2-(3,4-Dihydroisoquinolin-2(1H)-yl)pyrimidin-4-yl]piperidin-4-yl}-6-(3-fluorophenyl)nicotinamide] was 8.08.
The result for `O=C(NC1CCN(c2nccc(NCc3ccccn3)n2)CC1)c1ccc(-c2cccc(F)c2)nc1` [Example 59, 6-(3-Fluorophenyl)-N-(1-{4-[(pyridin-2-ylmethyl)amino]pyrimidin-2-yl}piperidin-4-yl)nicotinamide] reads 9.09; that for `O=C(NC1CCN(c2cnccn2)CC1)c1ccc(-c2cccc(F)c2)nc1` [Example 60, 6-(3-Fluorophenyl)-N-(1-pyrazin-2-ylpiperidin-4-yl)nicotinamide], 9.23; that for `O=C(NC1CCN(c2nncc3ccccc23)CC1)c1ccc(-c2cccc(F)c2)nc1` [Example 61, 6-(3-Fluorophenyl)-N-(1-phthalazin-1-ylpiperidin-4-yl)nicotinamide], 9.44.
As to `Cn1ccnc1-c1nc(N2CCC(NC(=O)c3ccc(-c4cccc(F)c4)nc3)CC2)nc2ccccc12` [Example 62, 6-(3-Fluorophenyl)-N-{1-[4-(1-methyl-1H-imidazol-2-yl)quinazolin-2-yl]piperidin-4-yl}nicotinamide], the pIC50 is 8.48.
`O=C(NC1CCN(c2ncnc3ncccc23)CC1)c1ccc(-c2cccc(F)c2)nc1` [Example 63, 6-(3-Fluorophenyl)-N-(1-pyrido[2,3-d]pyrimidin-4-ylpiperidin-4-yl)nicotinamide]: the pIC50 is 9.74.
`NC(=O)c1cccnc1N1CCC(NC(=O)c2ccc(-c3cccc(F)c3)nc2)CC1` [Example 64, N-{1-[3-(Aminocarbonyl)pyridin-2-yl]piperidin-4-yl}-6-(3-fluorophenyl)nicotinamide]: the pIC50 is 9.61.
The result for `O=C(NC1CCN(c2ncccc2Cl)CC1)c1ccc(-c2cccc(F)c2)nc1` [Example 65, N-[1-(3-Ahloropyridin-2-yl)piperidin-4-yl]-6-(3-fluorophenyl)nicotinamide] reads 9.45.
The result for `CCOC(=O)c1cccnc1N1CCC(NC(=O)c2ccc(-c3cccc(F)c3)nc2)CC1` [Example 66, Ethyl 2-[4-({[6-(3-fluorophenyl)pyridin-3-yl]carbonyl}amino)piperidin-1-yl]nicotinate] reads 9.20; that for `COc1ccnc(N2CCC(NC(=O)c3ccc(-c4cccc(F)c4)nc3)CC2)c1C#N` [Example 67, N-[1-(3-Cyano-4-methoxypyridin-2-yl)piperidin-4-yl]-6-(3-fluorophenyl)nicotinamide], 9.02; that for `NC(=O)c1ccc(N2CCC(NC(=O)c3ccc(-c4cccc(F)c4)nc3)CC2)nc1` [Example 68, N-{1-[5-(Aminocarbonyl)pyridin-2-yl]piperidin-4-yl}-6-(3-fluorophenyl)nicotinamide], 9.44.

The record behind these values is patent US7902373B2 (Pfizer Inc, priority 2006, dated 2011).
